Source: PMC5224920, “Assessing the mechanism and therapeutic potential of modulators of the human Mediator complex-associated protein kinases” (eLife, 2016)

Tested on: 12 single or co-culture in vitro tissue models of primary cells
Test: Culture/co-culture cell model panel, extracellular biomarkers (DiscoveRx); for CCL2/MCP-1: reference of the scale not given here; for CD38: reference of the scale not given here; for CD40: reference of the scale not given here; for CD69: reference of the scale not given here; for CXCL8/IL-8: reference of the scale not given here; for CXCL9/MIG: reference of the scale not given here; for IL-1alpha: reference of the scale not given here; for M-CSF: reference of the scale not given here; for PBMC Cytotoxicity: reference of the scale not given here
Format: cell-based, human
[1] = /Mphg Huvec+macrophages, 1.00E0 nM
[2] = /Mphg Huvec+macrophages, 1.00E1 nM
[3] = /Mphg Huvec+macrophages, 1.00E2 nM
[4] = /Mphg Huvec+macrophages, 1.00E3 nM
[5] = /Mphg Huvec+macrophages, 1.00E4 nM

CN1c2ccc(-c3cncc(Cl)c3N3CCC4(CC3)CNC(=O)O4)cc2CS1(=O)=O [CMPD2]
Collagen III (/HDFNo, 1.00E3 nM): 0.037 | CCL2/MCP-1 (/HDFNo, 1.00E4 nM): 0.068 | CD54/ICAM-1 (/HDFNo, 1.00E4 nM): 0.057 | CD106/VCAM-1 (/HDFNo, 1.00E4 nM): 0.067 | Collagen I (/HDFNo, 1.00E4 nM): 0.071 | Collagen III (/HDFNo, 1.00E4 nM): 0.073 | CCL2/MCP-1 [1]: 0.022 | CCL3/MIP-1alpha [1]: 0.000424 | CD40 [1]: 0.00851 | CD69 [1]: 0.038 | CD106/VCAM-1 [1]: 0.069 | CXCL8/IL-8 [1]: 0.053 | IL-1alpha [1]: 0.041 | M-CSF [1]: -0.019 | SRB [1]: -0.007 | SRB-Mphg [1]: 0.018 | sIL-10 [1]: 0.074 | CCL2/MCP-1 [2]: -0.032 | CCL3/MIP-1alpha [2]: -0.016 | CD40 [2]: -0.000836 | CD69 [2]: 0.026 | CD106/VCAM-1 [2]: 0.052 | CXCL8/IL-8 [2]: -0.00092 | IL-1alpha [2]: 0.023 | M-CSF [2]: -0.033 | SRB [2]: -0.013 | SRB-Mphg [2]: 0.006 | sIL-10 [2]: 0.045 | CCL2/MCP-1 [3]: -0.044 | CCL3/MIP-1alpha [3]: -0.018 | CD40 [3]: 0.014 | CD69 [3]: -0.029 | CD106/VCAM-1 [3]: 0.050 | CXCL8/IL-8 [3]: 0.00849 | IL-1alpha [3]: 0.033 | M-CSF [3]: -0.037 | SRB [3]: -0.017 | SRB-Mphg [3]: 0.018 | sIL-10 [3]: -0.065 | CCL2/MCP-1 [4]: -0.085 | CCL3/MIP-1alpha [4]: -0.034 | CD40 [4]: 0.00225 | CD69 [4]: 0.036 | CD106/VCAM-1 [4]: 0.021 | CXCL8/IL-8 [4]: 0.012 | IL-1alpha [4]: 0.019 | M-CSF [4]: -0.046 | SRB [4]: -0.017 | SRB-Mphg [4]: 0.008 | sIL-10 [4]: -0.137 | CCL2/MCP-1 [5]: -0.107 | CCL3/MIP-1alpha [5]: -0.064 | CD40 [5]: -0.00011 | CD69 [5]: 0.061 | CD106/VCAM-1 [5]: 0.027 | CXCL8/IL-8 [5]: 0.023 | IL-1alpha [5]: 0.024 | M-CSF [5]: -0.054 | SRB [5]: -0.021 | SRB-Mphg [5]: -0.007 | sIL-10 [5]: -0.266 | CCL2/MCP-1 (/TH2, 1.00E0 nM): 0.046 | CCL26/Eotaxin-3 (/TH2, 1.00E0 nM): -0.081 | CD38 (/TH2, 1.00E0 nM): -0.015 | CD40 (/TH2, 1.00E0 nM): -0.063 | CD69 (/TH2, 1.00E0 nM): -0.031 | CD87/uPAR (/TH2, 1.00E0 nM): -0.079 | CD106/VCAM-1 (/TH2, 1.00E0 nM): 0.031 | CXCL8/IL-8 (/TH2, 1.00E0 nM): 0.026 | CXCL9/MIG (/TH2, 1.00E0 nM): 0.021 | Collagen IV (/TH2, 1.00E0 nM): -0.017 | PBMC Cytotoxicity (/TH2, 1.00E0 nM): -0.023 | SRB (/TH2, 1.00E0 nM): -0.037 | sIL-17A (/TH2, 1.00E0 nM): 0.106 | sIL-17F (/TH2, 1.00E0 nM): -0.026 | CCL2/MCP-1 (/TH2, 1.00E1 nM): -0.013 | CCL26/Eotaxin-3 (/TH2, 1.00E1 nM): -0.160 | CD38 (/TH2, 1.00E1 nM): -0.040 | CD40 (/TH2, 1.00E1 nM): -0.104 | CD69 (/TH2, 1.00E1 nM): -0.024 | CD87/uPAR (/TH2, 1.00E1 nM): -0.129 | CD106/VCAM-1 (/TH2, 1.00E1 nM): 0.033 | CXCL8/IL-8 (/TH2, 1.00E1 nM): -0.063 | CXCL9/MIG (/TH2, 1.00E1 nM): 0.013 | Collagen IV (/TH2, 1.00E1 nM): -0.009 | PBMC Cytotoxicity (/TH2, 1.00E1 nM): -0.008 | SRB (/TH2, 1.00E1 nM): -0.062 | sIL-17A (/TH2, 1.00E1 nM): 0.100 | sIL-17F (/TH2, 1.00E1 nM): -0.047 | CCL2/MCP-1 (/TH2, 1.00E2 nM): -0.044 | CCL26/Eotaxin-3 (/TH2, 1.00E2 nM): -0.160 | CD38 (/TH2, 1.00E2 nM): -0.008 | CD40 (/TH2, 1.00E2 nM): -0.119 | CD69 (/TH2, 1.00E2 nM): -0.012 | CD87/uPAR (/TH2, 1.00E2 nM): -0.098 | CD106/VCAM-1 (/TH2, 1.00E2 nM): 0.035 | CXCL8/IL-8 (/TH2, 1.00E2 nM): -0.029 | CXCL9/MIG (/TH2, 1.00E2 nM): 0.013 | Collagen IV (/TH2, 1.00E2 nM): 0.016 | PBMC Cytotoxicity (/TH2, 1.00E2 nM): -0.007 | SRB (/TH2, 1.00E2 nM): -0.066 | sIL-17A (/TH2, 1.00E2 nM): 0.165 | sIL-17F (/TH2, 1.00E2 nM): 0.173 | CCL2/MCP-1 (/TH2, 1.00E3 nM): -0.082 | CCL26/Eotaxin-3 (/TH2, 1.00E3 nM): -0.177 | CD38 (/TH2, 1.00E3 nM): -0.024 | CD40 (/TH2, 1.00E3 nM): -0.095 | CD69 (/TH2, 1.00E3 nM): -0.010 | CD87/uPAR (/TH2, 1.00E3 nM): -0.180 | CD106/VCAM-1 (/TH2, 1.00E3 nM): 0.017 | CXCL8/IL-8 (/TH2, 1.00E3 nM): -0.045 | CXCL9/MIG (/TH2, 1.00E3 nM): 0.011 | Collagen IV (/TH2, 1.00E3 nM): -0.006 | PBMC Cytotoxicity (/TH2, 1.00E3 nM): -0.011 | SRB (/TH2, 1.00E3 nM): -0.062 | sIL-17A (/TH2, 1.00E3 nM): 0.168 | sIL-17F (/TH2, 1.00E3 nM): -0.013 | CCL2/MCP-1 (/TH2, 1.00E4 nM): -0.093 | CCL26/Eotaxin-3 (/TH2, 1.00E4 nM): -0.166 | CD38 (/TH2, 1.00E4 nM): -0.035 | CD40 (/TH2, 1.00E4 nM): -0.115 | CD69 (/TH2, 1.00E4 nM): -0.043 | CD106/VCAM-1 (/TH2, 1.00E4 nM): 0.00327 | CXCL8/IL-8 (/TH2, 1.00E4 nM): -0.042 | CXCL9/MIG (/TH2, 1.00E4 nM): 0.000193 | Collagen IV (/TH2, 1.00E4 nM): -0.031 | PBMC Cytotoxicity (/TH2, 1.00E4 nM): -0.017 | SRB (/TH2, 1.00E4 nM): -0.065 | sIL-17A (/TH2, 1.00E4 nM): 0.146 | sIL-17F (/TH2, 1.00E4 nM): -0.041 | CCL26/Eotaxin-3 (BENo, 1.00E0 nM): 0.071 | CD54/ICAM-1 (BENo, 1.00E0 nM): 0.057 | CD87/uPAR (BENo, 1.00E0 nM): 0.050 | CXCL8/IL-8 (BENo, 1.00E0 nM): 0.030 | CXCL9/MIG (BENo, 1.00E0 nM): 0.080 | CXCL10/IP-10 (BENo, 1.00E0 nM): 0.112 | CXCL11/I-TAC (BENo, 1.00E0 nM): 0.105 | EGFR (BENo, 1.00E0 nM): 0.075 | HLA-DR (BENo, 1.00E0 nM): 0.134 | IL-1alpha (BENo, 1.00E0 nM): 0.066 | Keratin 8/18 (BENo, 1.00E0 nM): 0.059 | MMP-1 (BENo, 1.00E0 nM): 0.060 | MMP-9 (BENo, 1.00E0 nM): -0.001 | PAI-I (BENo, 1.00E0 nM): -0.018 | SRB (BENo, 1.00E0 nM): 0.00452 | tPA (BENo, 1.00E0 nM): 0.028 | uPA (BENo, 1.00E0 nM): 0.026 | CCL26/Eotaxin-3 (BENo, 1.00E1 nM): 0.036 | CD54/ICAM-1 (BENo, 1.00E1 nM): 0.042 | CD87/uPAR (BENo, 1.00E1 nM): 0.062 | CXCL8/IL-8 (BENo, 1.00E1 nM): 0.077 | CXCL9/MIG (BENo, 1.00E1 nM): 0.047 | CXCL10/IP-10 (BENo, 1.00E1 nM): 0.119 | CXCL11/I-TAC (BENo, 1.00E1 nM): 0.092 | EGFR (BENo, 1.00E1 nM): 0.077 | HLA-DR (BENo, 1.00E1 nM): 0.115 | IL-1alpha (BENo, 1.00E1 nM): 0.048 | Keratin 8/18 (BENo, 1.00E1 nM): 0.047 | MMP-1 (BENo, 1.00E1 nM): 0.063 | MMP-9 (BENo, 1.00E1 nM): -0.010 | PAI-I (BENo, 1.00E1 nM): -0.050 | SRB (BENo, 1.00E1 nM): 0.00136 | tPA (BENo, 1.00E1 nM): 0.026 | uPA (BENo, 1.00E1 nM): 0.026 | CCL26/Eotaxin-3 (BENo, 1.00E2 nM): 0.038 | CD54/ICAM-1 (BENo, 1.00E2 nM): -0.034 | CD87/uPAR (BENo, 1.00E2 nM): 0.110 | CXCL8/IL-8 (BENo, 1.00E2 nM): 0.017 | CXCL9/MIG (BENo, 1.00E2 nM): 0.084 | CXCL10/IP-10 (BENo, 1.00E2 nM): 0.121 | CXCL11/I-TAC (BENo, 1.00E2 nM): 0.082 | EGFR (BENo, 1.00E2 nM): 0.066 | HLA-DR (BENo, 1.00E2 nM): 0.075 | IL-1alpha (BENo, 1.00E2 nM): 0.078 | Keratin 8/18 (BENo, 1.00E2 nM): 0.033 | MMP-1 (BENo, 1.00E2 nM): 0.055 | MMP-9 (BENo, 1.00E2 nM): 0.015 | PAI-I (BENo, 1.00E2 nM): -0.035 | SRB (BENo, 1.00E2 nM): 0.002 | tPA (BENo, 1.00E2 nM): 0.038 | uPA (BENo, 1.00E2 nM): 0.032 | CCL26/Eotaxin-3 (BENo, 1.00E3 nM): 0.020 | CD54/ICAM-1 (BENo, 1.00E3 nM): -0.011 | CD87/uPAR (BENo, 1.00E3 nM): 0.063 | CXCL8/IL-8 (BENo, 1.00E3 nM): 0.028 | CXCL9/MIG (BENo, 1.00E3 nM): 0.087 | CXCL10/IP-10 (BENo, 1.00E3 nM): 0.136 | CXCL11/I-TAC (BENo, 1.00E3 nM): 0.044 | EGFR (BENo, 1.00E3 nM): 0.034 | HLA-DR (BENo, 1.00E3 nM): 0.115 | IL-1alpha (BENo, 1.00E3 nM): 0.047 | Keratin 8/18 (BENo, 1.00E3 nM): 0.017 | MMP-1 (BENo, 1.00E3 nM): 0.039 | MMP-9 (BENo, 1.00E3 nM): 0.056 | PAI-I (BENo, 1.00E3 nM): -0.090
